Data as given in ChEMBL document CHEMBL1149183, “Novel benzo[1,4]diazepin-2-one derivatives as endothelin receptor antagonists” (J Med Chem, 2004).
pIC50: −log10 of the molar value.

Columns and labels:
[1] = target: T1, Endothelin receptor type B (Homo sapiens, UniProt P24530); assay: Antagonist activity towards human recombinant Endothelin B receptor expressed in chinese hamster ovary (CHO) cells determined using [125I]ET1 as radioligand; assay type: functional, cell-based
T1 sequence (P24530 whole entry): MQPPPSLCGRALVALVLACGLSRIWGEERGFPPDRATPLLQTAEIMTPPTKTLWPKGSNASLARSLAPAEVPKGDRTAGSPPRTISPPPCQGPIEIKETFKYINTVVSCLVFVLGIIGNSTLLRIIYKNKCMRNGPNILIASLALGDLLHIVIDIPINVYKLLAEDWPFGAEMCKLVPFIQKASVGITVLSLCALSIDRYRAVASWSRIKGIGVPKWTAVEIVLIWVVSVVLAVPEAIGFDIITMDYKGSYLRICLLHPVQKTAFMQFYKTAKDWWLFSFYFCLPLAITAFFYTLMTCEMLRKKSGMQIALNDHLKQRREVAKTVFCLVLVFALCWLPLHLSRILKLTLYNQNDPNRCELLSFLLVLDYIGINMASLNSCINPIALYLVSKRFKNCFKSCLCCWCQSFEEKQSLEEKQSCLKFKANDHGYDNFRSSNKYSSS

Endothelin-1 receptor = target: T2, Endothelin-1 receptor (Homo sapiens, UniProt P25101); assay: Antagonist activity towards human recombinant Endothelin A receptor expressed in chinese hamster ovary (CHO) cells determined using [125I]ET1 as radioligand; assay type: functional, cell-based
T2 sequence (P25101 whole entry): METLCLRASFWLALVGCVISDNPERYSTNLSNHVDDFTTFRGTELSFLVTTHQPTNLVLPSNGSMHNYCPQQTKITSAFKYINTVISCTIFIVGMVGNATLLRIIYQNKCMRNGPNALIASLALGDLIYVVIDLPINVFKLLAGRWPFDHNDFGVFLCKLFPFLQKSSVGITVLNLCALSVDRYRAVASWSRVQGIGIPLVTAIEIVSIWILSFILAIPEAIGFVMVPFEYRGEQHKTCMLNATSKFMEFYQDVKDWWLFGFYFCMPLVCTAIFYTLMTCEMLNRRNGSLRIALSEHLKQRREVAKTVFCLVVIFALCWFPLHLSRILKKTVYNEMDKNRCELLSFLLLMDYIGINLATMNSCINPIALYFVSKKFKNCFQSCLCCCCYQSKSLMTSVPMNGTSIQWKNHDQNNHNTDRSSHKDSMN

| SMILES | pIC50 [1] | pIC50 (Endothelin-1 receptor) |
| --- | --- | --- |
| O=C(O)[C@@H](Oc1ccccc1Cl)[C@@]1(c2ccccc2)NCC(=O)N(Cc2c(Cl)cccc2Cl)c2ccccc21 (racemic) | < 5.00 | < 5.00 |
| Cc1cc(C)cc(O[C@H](C(=O)O)[C@@]2(c3ccccc3)NCC(=O)N(Cc3c(Cl)cccc3Cl)c3ccccc32)c1 (racemic) | 6.96 | 7.69 |
| Cc1ccc(C)c(O[C@H](C(=O)O)[C@@]2(c3ccccc3)NCC(=O)N(Cc3c(Cl)cccc3Cl)c3ccccc32)c1 (racemic) | < 6.00 | < 5.00 |
| Cc1cccc(O[C@H](C(=O)O)[C@@]2(c3ccccc3)NCC(=O)N(Cc3c(Cl)cccc3Cl)c3ccccc32)c1 (racemic) | 6.13 | 7.54 |
| Cc1cc(C)nc(O[C@H](C(=O)O)[C@@]2(c3ccccc3)NCC(=O)N(Cc3cccc(Cl)c3)c3ccccc32)n1 (racemic) | 7.67 | 8.24 |
| Cc1cc(C)nc(O[C@H](C(=O)O)[C@@]2(c3ccccc3)NCC(=O)N(Cc3cccc(F)c3)c3ccccc32)n1 (racemic) | 7.57 | 8.17 |
| O=C(O)[C@@H](Oc1ccccc1)[C@@]1(c2ccccc2)NCC(=O)N(Cc2c(Cl)cccc2Cl)c2ccccc21 (racemic) | 5.43 | 6.68 |
| COc1cc(OC)nc(O[C@H](C(=O)O)[C@@]2(c3ccccc3)NCC(=O)N(C)c3ccccc32)n1 (racemic) | 6.33 | 7.63 |
| Cc1cc(C)nc(O[C@H](C(=O)O)[C@@]2(c3ccccc3)NCC(=O)N(CCC3CCCCC3)c3ccccc32)n1 (racemic) | 6.82 | 6.84 |
| Cc1cc(C)nc(O[C@H](C(=O)O)[C@@]2(c3ccccc3)NCC(=O)N(Cc3ccccc3C)c3ccccc32)n1 (racemic) | 7.26 | 8.05 |
| Cc1ccc(CN2C(=O)CN[C@](c3ccccc3)([C@H](Oc3nc(C)cc(C)n3)C(=O)O)c3ccccc32)cc1 (racemic) | 7.16 | 7.52 |
| Cc1cc(C)nc(O[C@H](C(=O)O)[C@@]2(c3ccccc3)NCC(=O)N(Cc3cccc(OC(F)(F)F)c3)c3ccccc32)n1 (racemic) | 7.51 | 7.96 |
| Cc1cccc(O[C@H](C(=O)O)[C@@]2(c3ccccc3)NCC(=O)N(Cc3c(Cl)cccc3Cl)c3ccccc32)c1C (racemic) | < 6.00 | < 5.00 |
| CN1C(=O)CN[C@](c2ccccc2)([C@H](Oc2ncc(Br)cn2)C(=O)O)c2ccccc21 (racemic) | 5.02 | 6.03 |
| Cc1cc(C)nc(O[C@H](C(=O)O)[C@@]2(c3ccccc3)NCC(=O)N(Cc3cc(F)c(F)cc3F)c3ccccc32)n1 (racemic) | 7.14 | 8.14 |
| COCCOCN1C(=O)CN[C@](c2ccccc2)([C@H](Oc2nc(C)cc(C)n2)C(=O)O)c2ccccc21 (racemic) | 7.32 | 8.12 |
| Cc1cc(C)nc(O[C@H](C(=O)O)[C@@]2(c3ccccc3)NCC(=O)N(Cc3ccc(F)cc3F)c3ccccc32)n1 (racemic) | 6.96 | 8.22 |
| COc1ccccc1O[C@H](C(=O)O)[C@@]1(c2ccccc2)NCC(=O)N(Cc2c(Cl)cccc2Cl)c2ccccc21 (racemic) | < 5.00 | 5.23 |
| COc1ccc(CN2C(=O)CN[C@](c3cccc(F)c3)([C@H](Oc3nc(C)cc(C)n3)C(=O)O)c3ccccc32)cc1 (racemic) | 7.31 | 8.04 |
| Cc1cc(C)nc(O[C@H](C(=O)O)[C@@]2(c3ccccc3)NCC(=O)N(Cc3cccc(Br)c3)c3ccccc32)n1 (racemic) | 7.59 | 8.19 |
| COc1ccc(CN2C(=O)CN[C@](c3cccc(C(F)(F)F)c3)([C@H](Oc3nc(C)cc(C)n3)C(=O)O)c3ccccc32)cc1 (racemic) | 6.62 | 7.60 |
| Cc1cc(C)nc(O[C@H](C(=O)O)[C@@]2(c3ccccc3)NCC(=O)N(Cc3cccc(F)c3F)c3ccccc32)n1 (racemic) | 7.73 | 8.43 |
| Cc1cc(C)nc(O[C@H](C(=O)O)[C@@]2(c3ccccc3)NCC(=O)N(CC(=O)O)c3ccccc32)n1 (racemic) | 6.25 | 7.89 |
| CC(C)c1ccc(O[C@H](C(=O)O)[C@@]2(c3ccccc3)NCC(=O)N(Cc3c(Cl)cccc3Cl)c3ccccc32)cc1 (racemic) | 5.06 | < 5.00 |
| Cc1cc(C)nc(O[C@H](C(=O)O)[C@@]2(c3ccccc3)NCC(=O)N(Cc3cc(F)cc(F)c3)c3ccccc32)n1 (racemic) | 7.88 | 8.10 |
| COc1cccc(O[C@H](C(=O)O)[C@@]2(c3ccccc3)NCC(=O)N(Cc3c(Cl)cccc3Cl)c3ccccc32)c1 (racemic) | 5.83 | 6.89 |

| SMILES | pIC50 [1] | pIC50 (Endothelin-1 receptor) |
| --- | --- | --- |
| COc1ccc(CN2C(=O)CN[C@](c3cccc(Cl)c3)([C@H](Oc3nc(C)cc(C)n3)C(=O)O)c3ccccc32)cc1 (racemic) | 7.11 | 7.60 |
| COc1ccc(CN2C(=O)CN[C@](C3CCCCC3)([C@H](Oc3nc(C)cc(C)n3)C(=O)O)c3ccccc32)cc1 (racemic) | 6.98 | 6.95 |
| Cc1cc(C)nc(O[C@H](C(=O)O)[C@@]2(c3ccccc3)NCc3nnc(C)n3-c3ccccc32)n1 (racemic) | 6.60 |  |
| Cc1cc(C)nc(O[C@H](C(=O)O)[C@@]2(c3ccccc3)NCC(=O)N(CC3CCCCC3)c3ccccc32)n1 (racemic) | 7.09 | 7.08 |
| COc1ccc(CN2C(=O)CN[C@](c3ccccc3F)([C@H](Oc3nc(C)cc(C)n3)C(=O)O)c3ccccc32)cc1 (racemic) | 7.10 |  |
| Cc1cc(C)nc(O[C@H](C(=O)O)[C@@]2(c3ccccc3)NCCCc3ccccc32)n1 (racemic) | 5.11 | 7.04 |
| COc1cc(OC)cc(O[C@H](C(=O)O)[C@@]2(c3ccccc3)NCC(=O)N(Cc3c(Cl)cccc3Cl)c3ccccc32)c1 (racemic) | 6.41 | 7.34 |
| Cc1cc(C)nc(O[C@H](C(=O)O)[C@@]2(c3ccccc3)NCc3c(C(=O)O)nc(C)n3-c3ccccc32)n1 (racemic) | 6.15 | 6.22 |
| COc1cc(OC)cc(O[C@H](C(=O)O)[C@@]2(c3ccccc3)NCC(=O)N(C)c3cc(Cl)ccc32)c1 (racemic) | 5.25 | 5.42 |
| COc1cc(OC)cc(O[C@H](C(=O)O)[C@@]2(c3ccccc3)NCC(=O)N(C)c3cc(OC)ccc32)c1 (racemic) | 5.11 | 5.40 |
| COc1ccc(CN2C(=O)CN[C@](c3cccc(OC)c3)([C@H](Oc3nc(C)cc(C)n3)C(=O)O)c3ccccc32)cc1 (racemic) | 7.03 | 7.99 |
| CN1C(=O)CN[C@](c2ccccc2)([C@H](Oc2ncccn2)C(=O)O)c2ccccc21 (racemic) | < 5.00 |  |
| COc1cc(OC)cc(O[C@H](C(=O)O)[C@@]2(c3ccccc3)NCC(=O)N(C)c3ccc(Cl)cc32)c1 (racemic) | 5.74 | 6.58 |
| Cc1ccccc1O[C@H](C(=O)O)[C@@]1(c2ccccc2)NCC(=O)N(Cc2c(Cl)cccc2Cl)c2ccccc21 (racemic) | < 5.00 | < 5.00 |
| CCc1cc(CC)nc(O[C@H](C(=O)O)[C@@]2(c3ccccc3)NCC(=O)N(C)c3ccccc32)n1 (racemic) | 6.18 | 7.69 |
| Cc1cc(C)nc(O[C@H](C(=O)O)[C@@]2(c3ccccc3)NCC(=O)N(Cc3ccc(Cl)cc3)c3ccccc32)n1 (racemic) | 6.91 | 7.76 |
| Cc1cc(C)nc(O[C@H](C(=O)O)[C@@]2(c3ccccc3)NCC(=O)N(Cc3cccc(C(F)(F)F)c3)c3ccccc32)n1 (racemic) | 7.81 | 8.04 |
| COc1cnc(O[C@H](C(=O)O)[C@@]2(c3ccccc3)NCC(=O)N(C)c3ccccc32)nc1 (racemic) | 5.03 | 6.42 |
| Cc1cc(C)nc(O[C@H](C(=O)O)[C@@]2(c3ccccc3)NCC(=O)N(Cc3ccccc3Cl)c3ccccc32)n1 (racemic) | 7.32 | 7.99 |
| Cc1cc(C)nc(O[C@H](C(=O)O)[C@@]2(c3ccccc3)NCC(=O)N(CCCC(=O)O)c3ccccc32)n1 (racemic) | 6.60 | 7.34 |
| O=C(O)[C@@H](Oc1cccc(Cl)c1)[C@@]1(c2ccccc2)NCC(=O)N(Cc2c(Cl)cccc2Cl)c2ccccc21 (racemic) | 5.50 | 7.00 |
| Cc1cc(C)nc(O[C@H](C(=O)O)[C@@]2(c3ccccc3)NCC(=O)N(CCN(C)C)c3ccccc32)n1 (racemic) | 5.75 | 6.41 |
| Cc1cccc(CN2C(=O)CN[C@](c3ccccc3)([C@H](Oc3nc(C)cc(C)n3)C(=O)O)c3ccccc32)c1 (racemic) | 7.78 | 8.30 |
| COc1ccc(CN2C(=O)CN[C@](c3cc(C)cc(C)c3)([C@H](Oc3nc(C)cc(C)n3)C(=O)O)c3ccccc32)cc1 (racemic) | 6.12 | 6.56 |
| COc1cc(OC)cc(O[C@H](C(=O)O)[C@@]2(c3ccccc3)NCC(=O)N(C)c3ccccc32)c1 (racemic) | 5.20 |  |
